Results taken from patent US12281114B2, “NK3 modulators and uses thereof” (Kallyope, Inc., priority 2023, dated 2025).

molecular target: T1, human NK3 (Homo sapiens, UniProt P29371); experiment: FLIPR calcium assay in antagonist mode (NKB EC70 challenge); format: cell-based; conditions: stable cell line expressing human recombinant NK3; antagonist mode vs EC70 of NKB agonist
T1 sequence (P29371 1-465): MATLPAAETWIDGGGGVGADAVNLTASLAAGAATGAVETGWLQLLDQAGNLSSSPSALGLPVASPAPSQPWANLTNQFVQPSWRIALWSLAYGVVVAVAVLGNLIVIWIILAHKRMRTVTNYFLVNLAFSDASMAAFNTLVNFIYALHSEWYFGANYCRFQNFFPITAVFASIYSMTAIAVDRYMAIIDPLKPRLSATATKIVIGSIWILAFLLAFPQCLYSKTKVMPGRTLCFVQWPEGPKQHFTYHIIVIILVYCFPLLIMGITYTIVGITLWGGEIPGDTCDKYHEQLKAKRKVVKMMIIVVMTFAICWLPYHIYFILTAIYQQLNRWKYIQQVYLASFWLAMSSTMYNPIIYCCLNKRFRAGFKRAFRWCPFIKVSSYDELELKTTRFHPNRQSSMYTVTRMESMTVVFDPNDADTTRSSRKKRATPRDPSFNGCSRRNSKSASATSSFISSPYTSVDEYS
Method in brief: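 Recombinant human NK3 stable cells loaded with Calcium 6 dye were given compound, read for 10 min, then challenged with NKB at its predetermined EC70 and read 10 min by FLIPR. The second peak minus baseline was normalized to 10 μM and 0 μM antagonist controls, and fitted for IC50 and efficacy.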

IC50 [nM] | SMILES
1.06 | Cn1cc(-c2cccc(F)c2-c2nc3cc(C(=O)N[C@]45CC[C@](CO)(C4)OC5)ccn3c2Cl)c(F)n1 (single isomer, unassigned; second eluting) [Compound 920, 3-chloro-2-(2-fluoro-6-(3-fluoro-1-methyl-1H-pyrazol-4-yl)phenyl)-N-(1-(hydroxymethyl)-2-oxabicyclo[2.2.1]heptan-4-yl)imidazo[1,2-a]pyridine-7-carboxamide, second eluting enantiomer]
1.51 | Cc1nn(C)cc1-c1cc(F)cc(F)c1-c1nc2cc(C(=O)N[C@@H]3CO[C@H]4[C@@H]3OC[C@H]4O)ccn2c1Cl [Compound 787, 3-chloro-2-(2-(1,3-dimethyl-1H-pyrazol-4-yl)-4,6-difluorophenyl)-N-((3R,3aR,6R,6aR)-6-hydroxyhexahydrofuro[3,2-b]furan-3-yl)imidazo[1,2-a]pyridine-7-carboxamide]
2.61 | Cn1cc(-c2cccc(F)c2-c2nc3cc(C(=O)NC45COC(C)(C4)C5)ccn3c2C#N)c(F)n1 [Compound 845, 3-cyano-2-(2-fluoro-6-(3-fluoro-1-methyl-1H-pyrazol-4-yl)phenyl)-N-(1-methyl-2-oxabicyclo[2.1.1]hexan-4-yl)imidazo[1,2-a]pyridine-7-carboxamide]
1.42 | Cn1cc(-c2cccc(F)c2-c2nc3cc(C(=O)NC45CCC(CO)(C4)OC5)ccn3c2Cl)c(F)n1 (stereo not drawn) [Compound 854]
1.71 | Cn1cc(-c2ccccc2-c2nc3cc(C(=O)NC45CCC(O)(CC4)C5)ccn3c2Cl)c(F)n1 [Compound 855]
11.8 | CC12CC(NC(=O)c3ccn4c(Cl)c(-c5c(F)cccc5-c5cn[nH]c5)nc4c3)(C1)C2 [Compound 856]
0.84 | Cn1cc(-c2ccc(F)c(F)c2-c2nc3cc(C(=O)N[C@H]4C[C@@](C)(O)C4)ccn3c2Cl)c(F)n1 [Compound 916]
0.67 | Cn1cc(-c2cccc(F)c2-c2nc3cc(C(=O)N[C@H]4CC[C@](C)(O)CC4)ccn3c2Cl)c(F)n1 [Compound 917]
3.48 | Cn1cc(-c2cccc(F)c2-c2nc3cc(C(=O)N[C@H]4CC[C@](C)(O)CC4)ccn3c2Cl)cn1 [Compound 918, 3-chloro-2-(2-fluoro-6-(1-methyl-1H-pyrazol-4-yl)phenyl)-N-((1r,4r)-4-hydroxy-4-methylcyclohexyl)imidazo[1,2-a]pyridine-7-carboxamide]
1.27 | Cn1cc(-c2cccc(F)c2-c2nc3cc(C(=O)N[C@H]4CC[C@@](C)(O)CC4)ccn3c2Cl)c(F)n1 [Compound 919]
0.71 | Cn1cc(-c2cccc(F)c2-c2nc3cc(C(=O)N[C@H]4CC5(C[C@@H](O)C5)C4)ccn3c2Cl)c(F)n1 (stereo partly drawn) [Compound 921, trans 3-chloro-2-(2-fluoro-6-(3-fluoro-1-methyl-1H-pyrazol-4-yl)phenyl)-N-(6-hydroxyspiro[3.3]heptan-2-yl)imidazo[1,2-a]pyridine-7-carboxamide]
2.83 | Cn1cc(-c2cc(F)cc(F)c2-c2nc3cc(C(=O)N[C@H]4C[C@](O)(CO)C4)ccn3c2Cl)c(F)n1 [Compound 922, 3-chloro-2-(2,4-difluoro-6-(3-fluoro-1-methyl-1H-pyrazol-4-yl)phenyl)-N-((1s,3s)-3-hydroxy-3-(hydroxymethyl)cyclobutyl)imidazo[1,2-a]pyridine-7-carboxamide]
2.36 | Cn1cc(-c2cc(F)cc(F)c2-c2nc3cc(C(=O)N[C@H]4C[C@@](O)(CO)C4)ccn3c2Cl)c(F)n1 [Compound 923, 3-chloro-2-(2,4-difluoro-6-(3-fluoro-1-methyl-1H-pyrazol-4-yl)phenyl)-N-((1r,3r)-3-hydroxy-3-(hydroxymethyl)cyclobutyl)imidazo[1,2-a]pyridine-7-carboxamide]
0.97 | Cn1cc(-c2cccc(F)c2-c2nc3cc(C(=O)N[C@H]4CC[C@H](CO)OC4)ccn3c2Cl)c(F)n1 [Compound 924, 3-chloro-2-(2-fluoro-6-(3-fluoro-1-methyl-1H-pyrazol-4-yl)phenyl)-N-((3S,6R)-6-(hydroxymethyl)tetrahydro-2H-pyran-3-yl)imidazo[1,2-a]pyridine-7-carboxamide]
1.85 | Cn1cc(-c2cccc(F)c2-c2nc3cc(C(=O)N[C@H]4C[C@](C)(O)C4)ccn3c2C#N)c(F)n1 [Compound 925, 3-cyano-2-(2-fluoro-6-(3-fluoro-1-methyl-1H-pyrazol-4-yl)phenyl)-N-((1r,3r)-3-hydroxy-3-methylcyclobutyl)imidazo[1,2-a]pyridine-7-carboxamide]
2.21 | Cn1cc(-c2cccc(F)c2-c2nc3cc(C(=O)N[C@H]4CC[C@@H](CO)OC4)ccn3c2C#N)c(F)n1 [Compound 926]
2.66 | Cn1cc(-c2ccc(F)c(F)c2-c2nc3cc(C(=O)N[C@H]4C[C@](C)(O)C4)ccn3c2Cl)c(F)n1 [Compound 927]
1.56 | Cn1cc(-c2cccc(F)c2-c2nc3cc(C(=O)N[C@H]4CC5(C4)C[C@](C)(O)C5)ccn3c2Cl)c(F)n1 (stereo partly drawn) [Compound 928, cis 3-chloro-2-(2-fluoro-6-(3-fluoro-1-methyl-1H-pyrazol-4-yl)phenyl)-N-(6-hydroxy-6-methylspiro[3.3]heptan-2-yl)imidazo[1,2-a]pyridine-7-carboxamide]
2.07 | Cn1cc(-c2cccc(F)c2-c2nc3cc(C(=O)N[C@H]4CC5(C4)C[C@](C)(O)C5)ccn3c2Cl)c(F)n1 (stereo partly drawn) [Compound 929, trans 3-chloro-2-(2-fluoro-6-(3-fluoro-1-methyl-1H-pyrazol-4-yl)phenyl)-N-(6-hydroxy-6-methylspiro[3.3]heptan-2-yl)imidazo[1,2-a]pyridine-7-carboxamide]
3 | Cn1cc(-c2cccc(F)c2-c2nc3cc(C(=O)N[C@H]4CC[C@](C)(O)CC4)ccn3c2C#N)c(F)n1 [Compound 930, 3-cyano-2-(2-fluoro-6-(3-fluoro-1-methyl-1H-pyrazol-4-yl)phenyl)-N-((1r,4r)-4-hydroxy-4-methylcyclohexyl)imidazo[1,2-a]pyridine-7-carboxamide]
6.09 | Cn1cc(-c2ccc(F)c(F)c2-c2nc3cc(C(=O)NC45COC(C)(C4)C5)ccn3c2C#N)c(F)n1 [Compound 932, 3-cyano-2-(2,3-difluoro-6-(3-fluoro-1-methyl-1H-pyrazol-4-yl)phenyl)-N-(1-methyl-2-oxabicyclo[2.1.1]hexan-4-yl)imidazo[1,2-a]pyridine-7-carboxamide]
5.66 | Cn1cc(-c2ccc(F)c(F)c2-c2nc3cc(C(=O)N4CCOCC4)ccn3c2Cl)c(F)n1 [Compound 933, (3-chloro-2-(2,3-difluoro-6-(3-fluoro-1-methyl-1H-pyrazol-4-yl)phenyl)imidazo[1,2-a]pyridin-7-yl)(morpholino)methanone]
9.69 | Cn1cc(-c2cccc(F)c2-c2nc3cc(C(=O)N[C@]45CC[C@](CO)(C4)OC5)ccn3c2Cl)cn1 [Compound 934]

tested on: acute nitroglycerin (NTG) migraine model in rats; experiment: Acute nitroglycerin (NTG) rat migraine model, periorbital von Frey threshold; format: in vivo; conditions: male Sprague Dawley rats, 10 mg/kg NTG i.p., 30 mg/kg test compound, 90 min; 50% periorbital threshold after compound / baseline x 100
Description: An acute nitroglycerin (NTG) model was used to assess migraine efficacy in rats (for a review see: Sureda-Gibert, P, Neurobiol Pain. 2022 August-December; 12: 100105). Briefly, male Sprague Dawley rats, 8-weeks old (Charles River Laboratories), were pair-housed in a 12-h light cycle room upon facility arrival and left to acclimate for a minimum of 72 h. Animals were provided standard rodent chow (PicoLab Rodent Diet, 5053) and water ad libitum. Following the acclimation period, rats underwent a single behavioral testing apparatus acclimation. Rats were left to freely move and habituate for a minimum of 20 min. The testing apparatus used was a Multiple Configuration Animal Enclosure (Ugo Basile, 37000-007) placed on a self-standing table with a mesh-perforated bottom.
Periorbital threshold was measured using the up-down method (Chaplan, S. R., et al., J Neurosci Methods, 1994 July; 53(1):55-63), in which von Frey filaments (Ugo Basile, 37450-275) of increasing forces (0.4-15 g) were applied to the periorbital region until an application of a filament evoked a response, typically indicated by a rapid withdrawal response or paw swipe to the periorbital region. Once a response was observed, four more readings were obtained following the first change of direction to determine the withdrawal threshold close to 50%. The 50% threshold was then calculated using the following formula: 50% threshold (g)=10^(X+kd)/10^4, where X=the value, in log units, of the final von Frey filament, k=tabular value for the response pattern, and d=the average increment, in log units, between von Frey filaments.
Following acclimation, a baseline assessment was performed, and rats were then randomized into balanced treatment groups using baseline periorbital threshold measurements. On the day of the experiment, rats (n=12/group) were weighed and administered 10 mg/kg NTG (2 mg/mL in 0.9% saline; Henry Schein, NDC-0517-4810-25) by intraperitoneal injection, immediately followed by their assigned compound treatment of either vehicle (0.25% methyl cellulose, 5% Tween 80, 0.02% sodium dodecyl sulfate (SDS) in Hanks' Buffered Salt Solution with Ca^2+ and Mg^2+), 10 mg/kg sumatriptan as a positive control (2 mg/mL in vehicle; Ambeed, A260899-1g) or 30 mg/kg test compound (10 mg/mL in vehicle).
Approximately 70 min post dosing, animals were placed in the behavioral testing apparatus and allowed to habituate to individual enclosures for a minimum of 20 min prior to von Frey assessment. Von Frey measurements were then recorded at 90 and 120. Upon final measurement, rats were immediately euthanized via CO2 asphyxiation followed by exsanguination. Blood was collected in lithium-heparin serum-separating tubes (BD, 365985) and processed for serum collection. Serum samples were then stored at −80° C.
Migraine efficacy (%) was calculated by dividing the 50% threshold (g) following administration of test compound by the baseline 50% threshold (g) and then multiplying by 100.

SMILES | Efficacy (%)
Cn1cc(-c2cccc(F)c2-c2nc3cc(C(=O)N[C@]45CC[C@](CO)(C4)OC5)ccn3c2Cl)c(F)n1 (single isomer, unassigned; second eluting) [Compound 920, 3-chloro-2-(2-fluoro-6-(3-fluoro-1-methyl-1H-pyrazol-4-yl)phenyl)-N-(1-(hydroxymethyl)-2-oxabicyclo[2.2.1]heptan-4-yl)imidazo[1,2-a]pyridine-7-carboxamide, second eluting enantiomer] | 100
Cc1nn(C)cc1-c1cc(F)ccc1-c1nc2cc(C(=O)N[C@@H]3CO[C@H]4[C@@H]3OC[C@H]4O)ccn2c1Cl [Compound 16, 3-chloro-2-(2-(1,3-dimethyl-1H-pyrazol-4-yl)-4-fluorophenyl)-N-((3R,3aR,6R,6aR)-6-hydroxyhexahydrofuro[3,2-b]furan-3-yl)imidazo[1,2-a]pyridine-7-carboxamide] | 82
Cc1nn(C)cc1-c1cc(F)cc(F)c1-c1nc2cc(C(=O)N[C@@H]3CO[C@H]4[C@@H]3OC[C@H]4O)ccn2c1Cl [Compound 787, 3-chloro-2-(2-(1,3-dimethyl-1H-pyrazol-4-yl)-4,6-difluorophenyl)-N-((3R,3aR,6R,6aR)-6-hydroxyhexahydrofuro[3,2-b]furan-3-yl)imidazo[1,2-a]pyridine-7-carboxamide] | 70
Cn1cc(-c2cccc(F)c2-c2nc3cc(C(=O)NC45COC(C)(C4)C5)ccn3c2C#N)c(F)n1 [Compound 845, 3-cyano-2-(2-fluoro-6-(3-fluoro-1-methyl-1H-pyrazol-4-yl)phenyl)-N-(1-methyl-2-oxabicyclo[2.1.1]hexan-4-yl)imidazo[1,2-a]pyridine-7-carboxamide] | 92
